Data set [1] has as its system DFT1 1426 cells. Type of data set: cell-based, Tasmanian devil (Sarcophilus harrisii). The settings on record: for effect on cell viability (in words): 500 µg/mL, 12-36 h; for concentration toxic to DFT1 1426 cells: summary in the discussion. As to the method: The DFT1 cell line 1426, derived from a primary DFT1 tumour, was obtained from Menzies Institute for Medical Research, University of Tasmania. The cell line was maintained in RPMI 1640 media with 2 mM L-glutamine (Gibco) supplemented with 10% AmnioMax II (Gibco), 10% heat-inactivated foetal bovine serum (FBS) and 1% penicillin/streptomycin (Sigma-Aldrich), in T75 flasks (Nunc) at 35 °C 5% CO2. Cells were passaged using trypsin–EDTA (Sigma-Aldrich) when 90% confluent.
Toxicity of seven Tasmanian devil cathelicidins against DFT1 1426 cells was determined for twofold dilutions from 500 to 15.62 µg/mL, and four different timepoints (12, 18, 24 and 36 h). Confluent DFT1 1426 cells (passage 22) were re-suspended in RPMI 1640 with 10% FBS and 10% AmnioMax II at a concentration of 5 × 10^5 cells/mL, and 100μL seeded into each well of a sterile flat-bottom 96 well plate (Corning), with individual plates for each timepoint (12, 18, 24 and 36 h). All plates were incubated for 24 h at 35 °C 5% CO2 prior to the cytotoxicity test.
At 0 h, 100 μL of each peptide dilution was then added to each plate in quadruplicate for all timepoints (12, 18, 24 and 36 h), resulting in a final peptide concentrations of 500 μg/mL, 250 μg/mL, 125 μg/mL, 62.50 μg/mL, 31.25 μg/mL and 15.62 μg/mL. […] An untreated growth control of RPMI 1640, a positive control of dimethylsulfoxide (DMSO) (15%) and sterility control of RPMI 1640 only (no cells) were also included for each time point.
For the 12 h timepoint, 10% alamarBlue was immediately added to each well of the plate after addition of the peptide. For the remaining timepoints, plates were incubated for an additional 6, 12 or 24 h after addition of the peptides, then 10% alamarBlue added to each well. For all timepoints, after the addition of alamarBlue cells were incubated for a further 12 h, resulting in a total peptide incubation period of 12, 18, 24 and 36 h. Absorbance of alamarBlue for all timepoints was determined at 570 nm and 630 nm on a Biotek 800 TS microplate reader. Cell viability was calculated according to manufacturer’s instructions and expressed as a percentage of cell survival compared to the untreated growth control.
A one-sample, one-tailed t-test was used to test for significant difference in viability between treated cells and the negative growth control. A one sample, two-tailed t-test was also conducted to ensure there was no significant difference in viability between the negative growth control and the cells treated with the solvent only. Statistical analysis was conducted in R (R Development Core Team 2021).

For data set [2], the system named is DFT1 1426 cells. As to the kind of experiment: RNAseq differential gene expression in peptide-treated DFT1 1426 cells. The format is cell-based, Tasmanian devil (Sarcophilus harrisii). The settings on record: 500 μg/mL, 10 h, n = 3, vs vehicle control; for percentage of DE genes: of 15,548 genes; for Fold change, gene CCND3 / Fold change, gene CCNE1 / Fold change, gene CCNE2: G1-S phase transition; for Fold change, gene E2F2: cyclin transcription factor; for Fold change, gene IL6: cytokine; for Fold change, gene MYD88: immune signaling; for Fold change, gene RUNX1: transcription factor. As to the method:
RNAseq was used to characterize the mechanisms underlying the anticancer activity of the peptides. Confluent DFT1 1426 cells (passage number 25) were re-suspended at a concentration of 5 × 10^5 cells/ml and 1 mL seeded into each well of a sterile flat-bottom polystyrene 12-well plate (Corning). Following incubation for 24 h at 35 °C 5% CO2, media was aspirated from the cells and replaced with 500 μL of RPMI 1640 with 2 mM L-glutamine, 10% FBS and 10% AmnioMax II. 500 μL of each 1 mg/mL peptide solution (Saha-CATH1 to 7) was then added to the plate in triplicate, to give a final peptide concentration of 500 μg/mL. […] A vehicle control was also added to the plate in triplicate.
The plate was then incubated for a further 10 h at 35 °C in 5% CO2. This incubation period was selected as the cytotoxicity assay indicated it was sublethal for most of the peptides and would maintain sufficient cell viability to extract intact RNA. Media was then aspirated from the cells, which were washed twice with Dulbecco’s phosphate buffered saline (DPBS) (Sigma-Aldrich).
Total RNA was extracted from each replicate of the peptide-treated and vehicle control cells (n = 3) using the RNeasy mini kit (Qiagen) with cell lysis directly in each well of the 12 well plate. Total RNA was quality assessed using the RNA nano 6000 kit on the Agilent Bioanalyzer with all samples displaying a RIN score between 5 and 9. In total, 24 RNA samples corresponding to three treatments per peptide (Saha-CATH1 to 7) and a vehicle control were submitted to Ramaciotti Centre for Genomics (The University of New South Wales) for sequencing. Illumina TruSeq mRNA libraries were prepared for all samples, which were sequenced as 2 × 150 bp paired-end reads across an SP flowcell on the NovaSeq6000.
Raw reads were quality assessed using FastQC v0.11.8[47], then quality and length trimmed using Trimmomatic v0.39[48] using default parameters. Trimmed reads for each treatment (n = 3) and the control (n = 3) were aligned to the Tasmanian devil reference genome v7.0 (NCBI: GCA_000189315.1[49] using STAR v2.7.8a[50]. Alignments for each treatment were summarized into gene counts using featureCounts in the subread package v1.5.1[51].
Gene counts were used as input for differential expression analysis in R[52]. Genes with less than 50 counts across all samples were removed from the analysis, as these were unlikely to be biologically relevant and lacked sufficient statistical power. Firstly, the data was normalized by trimmed mean of M values (TMM) using edgeR v3.32.1[53] to account for any composition bias between libraries and to give an effective library size for downstream analysis. Multidimensional scaling (MDS) was used to check for variation between treatments using limma v3.36.0[54]. Expression levels were then normalized using upper-quartile normalization in EDAseq v2.24.0[55] to account for differences in distribution between lanes, such as sequencing depth. Differential expression analysis was performed using voom in the limma v3.36.0 package.
(§1) Over-representation analysis of Biological Processes was conducted in clusterProfiler v3.18.1[57]. Statistical significance was adjusted for multiple comparisons using the Benjamini–Hochberg method, and terms were considered significant when p-adj < 0.05. To remove general terms, gene sets larger than 200 were removed, and the simplify function was used to remove redundant GO terms. Further pathway analysis was conducted in IPA (Qiagen)[58], using mammal as the species type and nervous system for the tissue/cell type.

A further data set relates to human red blood cells. As to conditions: cited from earlier work. The source says: Cathelicidins have been isolated from many vertebrate taxa[34]–[37]. However, they have undergone gene expansion in marsupials due to the need for additional protection of immunologically naïve young during development in the pouch. […] During development within the pouch, young are exposed to diverse microbial flora, some of which are pathogenic. This has likely encouraged the lineage-specific expansion of cathelicidins in marsupials, resulting in mult ...

The test system of the next data set is human cell line A549. The settings on record: cited from earlier work. As to the method: Here we aimed to identify cathelicidin candidates for future development as anti-DFTD therapeutics. Four Tasmanian devil cathelicidins (Saha-CATH3, 4, 5 and 6) were toxic to DFT1 1426 cells at high concentrations: Saha-CATH3 at concentrations ≥ 62.5 µg/mL; Saha-CATH4 at 500 µg/mL; Saha-CATH5 at concentrations ≥ 125 µg/mL and Saha-CATH6 at concentrations ≥ 250 µg/mL. Previous studies have shown that two of these peptides (Saha-CATH3 and 4) are non-toxic to human cell line A549[44]. The other two (Saha-CATH5 and 6) reduced cell viability at high concentrations (500 µg/mL), resulting in 42% and 5 ...

For data set [3], the system named is DFT1 1426 cells. As to the kind of experiment: Ingenuity Pathway Analysis (canonical pathways) of DE genes in treated DFT1 1426 cells. The settings on record: DE genes of cells treated with 500 μg/mL for 10 h. Type of data set: cell-based, Tasmanian devil (Sarcophilus harrisii). As to the method: as §1
Setting [4] is: pre-replication complex, RNAseq.

No end group written: not given here. Bounds are passed on as bounds.

As for “GIKHILFMAKTKLPRATCTAEIKENCDRKK [Saha-CATH1, Tasmanian devil cathelicidin mature peptide, synthesized by ChinaPeptides Co. Ltd to 95% purity]”, the “effect on cell viability (in words)” value in the data set with DFT1 1426 cells [1] (DFT1 1426 cells) is on record as “did not reduce cell viability”. Moreover, the “percentage of DE genes” value with DFT1 1426 cells [2] is “less than 1%”.

In the case of “KRMGIFHLFWAGLRKLGNLIKNKIQQGIENFLG [Saha-CATH3]”, the “haemolysis of human red blood cells (in words)” value in the data set with human red blood cells is given as “not haemolytic”. For the same sequence, in the data set with human cell line A549, the “toxicity to human cell line A549 (in words)” value is given as “non-toxic”. For the same sequence, the “decrease in cell viability compared to the growth control” value in the data set with DFT1 1426 cells [1] (500 μg/mL, 36 h, DFT1 1426 cells, alamarBlue, quadruplicate) is given as “more than 50%”. Also, the “incubation period required before exhibiting a similar level of toxicity to Saha-CATH5” value in the data set with DFT1 1426 cells [1] (500 μg/mL, DFT1 1426 cells) was 18 h. The “cytotoxic concentration (cell viability reduced by more than 50%)” value in the data set on DFT1 1426 cells [1] (18 h) lay within 62.5 to 250 µg/mL. In addition, in the data set on DFT1 1426 cells [1], the “concentration toxic to DFT1 1426 cells” value is given as at least 62.5 µg/mL. In addition, in the data set on DFT1 1426 cells [3], the “IPA z-score, Cyclins and Cell Cycle Regulation” value is given as -2.333; the “IPA z-score, Th17 activation pathway” value was 3.317. Also, in the data set with DFT1 1426 cells [2] (RNAseq), the “Fold change, gene CCND3” value was found to be 0.62; the “Fold change, gene CCNE1” value is reported as 0.57; the “Fold change, gene CCNE2” value was 0.61; the “Fold change, gene E2F2” value stood at 0.48. Also, in the data set with DFT1 1426 cells [2] (RNAseq), the “Fold change, gene IL6” value was 4.38; the “Fold change, gene MYD88” value is reported as 2.64; the “Fold change, gene RUNX1” value came out at 2.71. Also, in the data set with DFT1 1426 cells [2] (cytokine receptor, RNAseq), the “Fold change, gene IL1R1” value is reported as 2.41 and the “Fold change, gene IL6R” value is listed as 2.88. In addition, in the data set on DFT1 1426 cells [2], the “percentage of DE genes” value is listed as 12.63%.

Turning to “KREDFLDQIIRDFRNFIYQKYRRLRDEFRKLRDILSG [Saha-CATH4, Tasmanian devil cathelicidin mature peptide, synthesized by ChinaPeptides Co. Ltd to 95% purity]”, in the data set on human cell line A549, the “toxicity to human cell line A549 (in words)” value is “non-toxic”. In the data set on DFT1 1426 cells [1], the “concentration toxic to DFT1 1426 cells” value is on record as 500 µg/mL. Moreover, in the data set on DFT1 1426 cells [3], the “IPA z-score, Cyclins and Cell Cycle Regulation” value is -3.317; the “IPA z-score, Th17 activation pathway” value worked out at 3.317; the “IPA z-score, cell cycle control of chromosomal replication” value was -3.638. Moreover, in the data set on DFT1 1426 cells [2] (RNAseq), the “Fold change, gene CCND3” value came out at 0.35; the “Fold change, gene CCNE1” value is reported as 0.44; the “Fold change, gene CCNE2” value is listed as 0.31; the “Fold change, gene E2F2” value is 0.28. Moreover, in the data set on DFT1 1426 cells [2] (RNAseq), the “Fold change, gene IL6” value is 3.73; the “Fold change, gene MYD88” value is 4.15; the “Fold change, gene RUNX1” value is recorded as 2.43. Besides, the “Fold change, gene IL6R” value in the data set with DFT1 1426 cells [2] (cytokine receptor, RNAseq) worked out at 5.25. The “percentage of DE genes” value in the data set on DFT1 1426 cells [2] was found to be 18.75%. In addition, in the data set on DFT1 1426 cells [2] (setting [4]), the “Fold change, gene CDC6” value was 0.29; the “Fold change, gene CDC7” value is recorded as 0.38; the “Fold change, gene ORC1” value is listed as 0.46.

Turning to “TFKRKNGSRKNGHRPGGYSLIALGNKKVLKAPYMESI [Saha-CATH2, Tasmanian devil cathelicidin mature peptide, synthesized by ChinaPeptides Co. Ltd to 95% purity]”, the “effect on cell viability (in words)” value in the data set on DFT1 1426 cells [1] (DFT1 1426 cells) is “did not reduce cell viability”. In addition, in the data set with DFT1 1426 cells [2], the “percentage of DE genes” value is “less than 1%”.

In the case of “STILEDPGKIRERRDIGEEPIQKKQKMYRDQMQ [Saha-CATH7, Tasmanian devil cathelicidin mature peptide, synthesized by ChinaPeptides Co. Ltd to 95% purity]”, in the data set with DFT1 1426 cells [1] (DFT1 1426 cells), the “effect on cell viability (in words)” value is “did not reduce cell viability”. For the same sequence, in the data set with DFT1 1426 cells [2], the “percentage of DE genes” value is reported as “less than 1%”. Moreover, the “number of differentially expressed (DE) genes” value in the data set on DFT1 1426 cells [2] (out of a total of 15,548 genes) came to 0.

The values are drawn from publication PMC10403513, “Tasmanian devil cathelicidins exhibit anticancer activity against Devil Facial Tumour Disease (DFTD) cells” (Scientific Reports, 2023).
